Source: patent publication US12209087B2, “AKT1 modulators” (Alterome Therapeutics, Inc., priority 2022, dated 2025)

Biological target: T1, full length AKT E17K (Homo sapiens, UniProt P31749, E17K)
T1 construct: host or cells: HEK-293 (ATCC CRL-1573)
Assay: NanoBRET Target Engagement (TE) Assay
Assay type: cell-based
Conditions: competitive displacement of tracer in cells, read-out: AKT1 E17K IC50
Outline: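 Compound and tracer incubated 2 h before luminescence at donor 450 nm and acceptor 600 nm, with extracellular signal inhibited. EC50 by sigmoidal variable-slope regression.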

T1 sequence (P31749 whole entry E17K): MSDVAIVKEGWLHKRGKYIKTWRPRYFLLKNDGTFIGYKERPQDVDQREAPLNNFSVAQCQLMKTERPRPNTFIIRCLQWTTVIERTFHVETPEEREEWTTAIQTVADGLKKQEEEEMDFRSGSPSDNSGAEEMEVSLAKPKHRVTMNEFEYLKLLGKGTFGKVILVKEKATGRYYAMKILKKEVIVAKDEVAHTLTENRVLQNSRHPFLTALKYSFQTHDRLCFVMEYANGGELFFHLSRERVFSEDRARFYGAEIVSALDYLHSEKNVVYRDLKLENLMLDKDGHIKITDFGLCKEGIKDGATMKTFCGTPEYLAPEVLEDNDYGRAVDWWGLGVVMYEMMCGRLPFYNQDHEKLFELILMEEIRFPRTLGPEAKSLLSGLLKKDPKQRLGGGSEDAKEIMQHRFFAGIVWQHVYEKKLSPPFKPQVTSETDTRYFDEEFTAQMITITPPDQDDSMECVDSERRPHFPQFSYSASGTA

Structure (SMILES)	IC50
N#Cc1nccc(NC2CCN(Cc3ccc(-n4c(-c5cccnc5N)nc5ccc(OC(F)F)nc54)cc3)CC2)n1 [Example 535, 4-((1-(4-(2-(2-Aminopyridin-3-yl)-5-(difluoromethoxy)-3H-imidazo[4,5-b]pyridin-3-yl)benzyl)piperidin-4-yl)amino)pyrimidine-2-carbonitrile]	< 15 nM
COc1ccncc1-c1ccc2nc(-c3cccnc3N)n(-c3ccc(CN4CCC(Nc5ccnc(C#N)n5)CC4)cc3)c2n1 [Example 536, 4-((1-(4-(2-(2-Aminopyridin-3-yl)-5-(4-methoxypyridin-3-yl)-3H-imidazo[4,5-b]pyridin-3-yl)benzyl)piperidin-4-yl)amino)pyrimidine-2-carbonitrile]	< 15 nM
COc1ncccc1-c1ccc2nc(-c3cccnc3N)n(-c3ccc(CN4CCC(Nc5ccnc(C#N)n5)CC4)cc3)c2n1 [Example 537, 4-((1-(4-(2-(2-Aminopyridin-3-yl)-5-(2-methoxypyridin-3-yl)-3H-imidazo[4,5-b]pyridin-3-yl)benzyl)piperidin-4-yl)amino)pyrimidine-2-carbonitrile]	< 15 nM
N#Cc1nccc(NC2CCN(Cc3ccc(-n4c(-c5cccnc5N)nc5ccc(-c6ccc[nH]c6=O)nc54)cc3)CC2)n1 [Example 538, 4-((1-(4-(2-(2-Aminopyridin-3-yl)-5-(2-hydroxypyridin-3-yl)-3H-imidazo[4,5-b]pyridin-3-yl)benzyl)piperidin-4-yl)amino)pyrimidine-2-carbonitrile]	15 to 60 nM
Cc1nn(C)cc1-c1ccc2nc(-c3cccnc3N)n(-c3ccc(CN4CCC(Nc5ccnc(C#N)n5)CC4)cc3)c2n1 [Example 539, 4-((1-(4-(2-(2-Aminopyridin-3-yl)-5-(1,3-dimethyl-1H-pyrazol-4-yl)-3H-imidazo[4,5-b]pyridin-3-yl)benzyl)piperidin-4-yl)amino)pyrimidine-2-carbonitrile]	< 15 nM
N#Cc1nccc(NC2CCN(Cc3ccc(-n4c(-c5cccnc5N)nc5cnccc54)cc3)CC2)n1 [Example 540, 4-((1-(4-(2-(2-Aminopyridin-3-yl)-1H-imidazo[4,5-c]pyridin-1-yl)benzyl)piperidin-4-yl)amino)pyrimidine-2-carbonitrile]	60 to 600 nM
CN(c1ccnc(C#N)n1)C1CCN(Cc2ccc(-n3c(-c4cccnc4N)nc4ccc(-c5ccc(F)cc5)nc43)cc2)CC1 [Example 541, 4-((1-(4-(2-(2-aminopyridin-3-yl)-5-(4-fluorophenyl)-3H-imidazo[4,5-b]pyridin-3-yl)benzyl)piperidin-4-yl)(methyl)amino)pyrimidine-2-carbonitrile]	< 15 nM
N#Cc1nccc(NC2CCN(Cc3ccc(-n4c(-c5cccnc5N)nc5ccc(-c6ccc(OC(F)F)nc6)nc54)cc3)CC2)n1 [Example 542, 4-((1-(4-(2-(2-Aminopyridin-3-yl)-5-(6-(difluoromethoxy)pyridin-3-yl)-3H-imidazo[4,5-b]pyridin-3-yl)benzyl)piperidin-4-yl)amino)pyrimidine-2-carbonitrile]	< 15 nM
N#Cc1nccc(NC2CCN(Cc3ccc(-n4c(-c5cccnc5N)nc5ccc(-c6ccnc(OC(F)F)c6)nc54)cc3)CC2)n1 [Example 543, 4-((1-(4-(2-(2-aminopyridin-3-yl)-5-(2-(difluoromethoxy)pyridin-4-yl)-3H-imidazo[4,5-b]pyridin-3-yl)benzyl)piperidin-4-yl)amino)pyrimidine-2-carbonitrile]	15 to 60 nM
N#Cc1nccc(NC2CCN(Cc3ccc(-n4c(-c5cccnc5N)nc5ccc(-c6ccc(F)cc6O)nc54)cc3)CC2)n1 [Example 544, 4-((1-(4-(2-(2-Aminopyridin-3-yl)-5-(4-fluoro-2-hydroxyphenyl)-3H-imidazo[4,5-b]pyridin-3-yl)benzyl)piperidin-4-yl)amino)pyrimidine-2-carbonitrile]	< 15 nM
N#Cc1nccc(NC2CCN(Cc3ccc(-n4c(-c5cccnc5N)nc5ccc(-c6ccc(F)c(O)c6)nc54)cc3)CC2)n1 [Example 545, 4-((1-(4-(2-(2-Aminopyridin-3-yl)-5-(4-fluoro-3-hydroxyphenyl)-3H-imidazo[4,5-b]pyridin-3-yl)benzyl)piperidin-4-yl)amino)pyrimidine-2-carbonitrile]	< 15 nM
Cn1cncc1-c1ccc2nc(-c3cccnc3N)n(-c3ccc(CN4CCC(Nc5ccnc(C#N)n5)CC4)cc3)c2n1 [Example 546, 4-((1-(4-(2-(2-Aminopyridin-3-yl)-5-(1-methyl-1H-imidazol-5-yl)-3H-imidazo[4,5-b]pyridin-3-yl)benzyl)piperidin-4-yl)amino)pyrimidine-2-carbonitrile]	< 15 nM
Cc1ccc(-c2ccc3nc(-c4cccnc4N)n(-c4ccc(CN5CCC(Nc6ccnc(C#N)n6)CC5)cc4)c3n2)nc1 [Example 547, 4-((1-(4-(2-(2-Aminopyridin-3-yl)-5-(5-methylpyridin-2-yl)-3H-imidazo[4,5-b]pyridin-3-yl)benzyl)piperidin-4-yl)amino)pyrimidine-2-carbonitrile]	< 15 nM
N#Cc1ccnc(-c2ccc3nc(-c4cccnc4N)n(-c4ccc(CN5CCC(Nc6ccnc(C#N)n6)CC5)cc4)c3n2)c1 [Example 548, 4-((1-(4-(2-(2-Aminopyridin-3-yl)-5-(4-cyanopyridin-2-yl)-3H-imidazo[4,5-b]pyridin-3-yl)benzyl)piperidin-4-yl)amino)pyrimidine-2-carbonitrile]	< 15 nM
N#Cc1nccc(NC2CCN(Cc3ccc(-n4c(-c5cccnc5N)nc5cc(Br)c(-c6ccc(F)cc6)nc54)cc3)CC2)n1 [Example 549, 4-((1-(4-(2-(2-Aminopyridin-3-yl)-6-bromo-5-(4-fluorophenyl)-3H-imidazo[4,5-b]pyridin-3-yl)benzyl)piperidin-4-yl)amino)pyrimidine-2-carbonitrile]	< 15 nM
Cc1nc2c(cc1C#N)nc(-c1cccnc1N)n2-c1ccc(CN2CCC(Nc3ccnc(C#N)n3)CC2)cc1 [Example 550, 2-(2-Aminopyridin-3-yl)-3-(4-((4-((2-cyanopyrimidin-4-yl)amino)piperidin-1-yl)methyl)phenyl)-5-methyl-3H-imidazo[4,5-b]pyridine-6-carbonitrile]	< 15 nM
N#Cc1nccc(NC2CCN(Cc3ccc(-n4c(-c5cccnc5N)nc5ccc(-c6ccncc6F)nc54)cc3)CC2)n1 [Example 551, 4-((1-(4-(2-(2-aminopyridin-3-yl)-5-(3-fluoropyridin-4-yl)-3H-imidazo[4,5-b]pyridin-3-yl)benzyl)piperidin-4-yl)amino)pyrimidine-2-carbonitrile]	< 15 nM
COc1ccc(-c2ccc3nc(-c4cccnc4N)n(-c4ccc(CN5CCC(Nc6ccnc(C#N)n6)CC5)cc4)c3n2)nc1 [Example 552, 4-((1-(4-(2-(2-Aminopyridin-3-yl)-5-(5-methoxypyridin-2-yl)-3H-imidazo[4,5-b]pyridin-3-yl)benzyl)piperidin-4-yl)amino)pyrimidine-2-carbonitrile]	< 15 nM
N#Cc1cc2c(cn1)nc(-c1cccnc1N)n2-c1ccc(CN2CCC(Nc3ccnc(C#N)n3)CC2)cc1 [Example 553, 2-(2-Aminopyridin-3-yl)-1-(4-((4-((2-cyanopyrimidin-4-yl)amino)piperidin-1-yl)methyl)phenyl)-1H-imidazo[4,5-c]pyridine-6-carbonitrile]	15 to 60 nM
